Bridge positions count the residues as written; N and C are the ends. Square brackets hold non-standard residues; d marks the D form. Peptide text beside a SMILES is read from it. * marks the point of attachment. ξ: configuration not given here. Phe(3-CF3) = N[C@@H](Cc1cccc(C(F)(F)F)c1)C(=O)O; Phe(4-COOH) = N[C@@H](Cc1ccc(C(=O)O)cc1)C(=O)O; Bip = N[C@@H](Cc1ccc(-c2ccccc2)cc1)C(=O)O; NH(CH2)14COOH = O=C(O)CCCCCCCCCCCCCCN*; Phe(3-Me) = Cc1cccc(C[C@H](N)C(=O)O)c1; Val(3-OH) = CC(C)(O)[C@H](N)C(=O)O; hArg = N=C(N)NCCCC[C@H](N)C(=O)O; 4Pal = N[C@@H](Cc1ccncc1)C(=O)O; Cha = N[C@@H](CC1CCCCC1)C(=O)O; Cit = NC(=O)NCCC[C@H](N)C(=O)O; Thr(3ξ) = CC(O)[C@H](N)C(=O)O; PEG4 = NCCOCCOCCOCCOCCC(=O)O; Carboxymethyl = O=C(O)C*; Orn = NCCC[C@H](N)C(=O)O; Aun = NCCCCCCCCCCC(=O)O; Dab = NCC[C@H](N)C(=O)O; Dap = NC[C@H](N)C(=O)O; AEEA = NCCOCCOCC(=O)O
The compounds below were run against T1, PD-1/PD-L1 interaction (PE-labeled human PD-L1-Ig binding to Jurkat cell line over-expressing human PD-1) (Homo sapiens, UniProt Q15116) (assay: Jurkat-PD-1 Cell Binding High-Content Screening Assay (CBA)). Details: Jurkat cell line over-expressing human PD-1; PE-labeled PD-L1-Ig 20 nM final; read-out: Jurkat hPD1-PDL1 IC50.
T1 construct: expressed in transfected cells; host or cells: Jurkat
T1 sequence (Q15116 25-288): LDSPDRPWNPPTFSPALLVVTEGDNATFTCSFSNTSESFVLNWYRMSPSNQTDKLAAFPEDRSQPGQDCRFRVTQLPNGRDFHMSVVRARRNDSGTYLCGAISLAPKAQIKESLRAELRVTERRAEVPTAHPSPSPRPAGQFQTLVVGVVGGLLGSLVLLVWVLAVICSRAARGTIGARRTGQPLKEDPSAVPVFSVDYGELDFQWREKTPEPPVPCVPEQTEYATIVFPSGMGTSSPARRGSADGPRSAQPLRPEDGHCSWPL
Type: cell-based
Method in brief: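 Jurkat cells over-expressing human PD-1 (8×10^3 per well, DMEM/10% FCS) preincubated with compound 2 h at 37° C, then PE-labeled human PD-L1-Ig (20 nM final) added for 1 h. Cells fixed with paraformaldehyde, Hoechst-stained, and bound fluorescence quantified by high-content imaging.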

Going from CC(C)C[C@H]1NC(=O)[C@H](CCCN)NC(=O)[C@H](Cc2ccc(C(=O)O)cc2)NC(=O)[C@H](Cc2ccc(-c3ccccc3)cc2)NC(=O)[C@H](Cc2ccc(C(=O)O)cc2)NC(=O)[C@H](Cc2cccc(C(F)(F)F)c2)NC(=O)[C@H](CC(=O)O)NC(=O)[C@H](Cc2ccc(OCC(=O)O)cc2)NC(=O)[C@H](C)NC(=O)CSC[C@@H](C(=O)N[C@@H](CCN)C(=O)NCCOCCOCCOCCOCCC(=O)NCCCCCCCCCCCCCCC(=O)O)NC(=O)[C@H](Cc2c[nH]cn2)NC(=O)[C@H](C(C)(C)O)NC(=O)[C@H](CC2CCCCC2)NC(=O)[C@H](CCN)NC1=O [Compound 2954] ({CH2CO}-AY(Carboxymethyl)D[Phe(3-CF3)][Phe(4-COOH)][Bip][Phe(4-COOH)][Orn][dL][Dab][Cha][Val(3-OH)]HC[Dab][PEG4]-{NH(CH2)14COOH}; thioether N-14) to CC(C)C[C@@H]1NC(=O)[C@H](Cc2c[nH]c3ccccc23)NC(=O)[C@H](CC(=O)O)NC(=O)[C@H](Cc2ccc(OCC(=O)O)cc2)NC(=O)[C@H](CCCCNC(=N)N)NC(=O)CSC[C@@H](C(=O)N[C@@H](C)C(=O)NCCOCCOCC(=O)N[C@@H](CCCCN)C(=O)NCCOCCOCC(=O)NCCCCCCCCCCCCCCC(=O)O)NC(=O)[C@H](CO)NC(=O)[C@H](C(C)C)NC(=O)[C@H](CC2CCCCC2)NC(=O)[C@H](CCN)NC(=O)[C@@H](CC(C)C)NC(=O)[C@H](CCCN)NC(=O)[C@H](C(C)C)NC(=O)[C@H](Cc2ccc(-c3ccccc3)cc2)NC1=O [Compound 3006] ({CH2CO}-[hArg]Y(Carboxymethyl)DWL[Bip]V[Orn][dL][Dab][Cha]VSCA[AEEA]K[AEEA]-{NH(CH2)14COOH}; thioether N-14), the IC50 falls from 264 nM to 129 nM (2-fold).

Compared with Cc1cccc(C[C@@H]2NC(=O)[C@H](CC(=O)O)NC(=O)[C@H](Cc3ccc(OCC(=O)O)cc3)NC(=O)[C@H](CN)NC(=O)CSC[C@@H](C(=O)N[C@@H](C)C(=O)N[C@@H](CCCCN)C(=O)NCC(=O)NCCCCCCCCCCCCCCC(=O)O)NC(=O)[C@H](C(C)O)NC(=O)[C@H](C(C)C)NC(=O)[C@H](CC3CCCCC3)NC(=O)[C@H](CCN)NC(=O)[C@@H](CC(C)C)NC(=O)[C@H](CCCN)NC(=O)[C@H](CCCNC(N)=O)NC(=O)[C@H](Cc3ccc(-c4ccccc4)cc3)NC(=O)[C@H](C(C)C)NC2=O)c1 (stereo partly drawn) [Compound 3007] ({CH2CO}-[Dap]Y(Carboxymethyl)D[Phe(3-Me)]V[Bip][Cit][Orn][dL][Dab][Cha]V[Thr(3ξ)]CAKG-{NH(CH2)14COOH}; thioether N-14), Cc1cccc(C[C@@H]2NC(=O)[C@H](CC(=O)O)NC(=O)[C@H](Cc3ccc(OCC(=O)O)cc3)NC(=O)[C@H](C(C)O)NC(=O)CSC[C@@H](C(=O)N[C@@H](C)C(=O)N[C@@H](CCN)C(=O)NCCCCCCCCCCC(=O)O)NC(=O)[C@H](C(C)O)NC(=O)[C@H](C(C)C)NC(=O)[C@H](CC3CCCCC3)NC(=O)[C@H](CCN)NC(=O)[C@@H](CC(C)C)NC(=O)[C@H](CCCN)NC(=O)[C@H](C(C)C)NC(=O)[C@H](Cc3ccc(-c4ccccc4)cc3)NC(=O)[C@H](C(C)C)NC2=O)c1 (stereo partly drawn) [Compound 3020] ({CH2CO}-[Thr(3ξ)]Y(Carboxymethyl)D[Phe(3-Me)]V[Bip]V[Orn][dL][Dab][Cha]V[Thr(3ξ)]CA[Dab][Aun]-OH; thioether N-14) is 15-fold lower in IC50: 180 nM for the first, 12 nM for the second. The second is the more potent here.

First: CC(C)C[C@H]1NC(=O)[C@H](CCCN)NC(=O)[C@H](CCN)NC(=O)[C@H](Cc2ccc(-c3ccccc3)cc2)NC(=O)[C@H](C(C)C)NC(=O)[C@H](Cc2c[nH]c3ccccc23)NC(=O)[C@H](CC(=O)O)NC(=O)[C@H](Cc2ccc(OCC(=O)O)cc2)NC(=O)[C@H](CN)NC(=O)CSC[C@@H](C(=O)N[C@@H](CC(N)=O)C(=O)NCC(=O)NCCCCCCCCCCCCCCC(=O)O)NC(=O)[C@H](CO)NC(=O)[C@H](C(C)C)NC(=O)[C@H](CC2CCCCC2)NC(=O)[C@H](CCN)NC1=O [Compound 3008] ({CH2CO}-[Dap]Y(Carboxymethyl)DWV[Bip][Dab][Orn][dL][Dab][Cha]VSCNG-{NH(CH2)14COOH}; thioether N-14)
Second: CC(C)C[C@@H]1NC(=O)[C@H](Cc2c[nH]c3ccccc23)NC(=O)[C@H](CC(=O)O)NC(=O)[C@H](Cc2ccc(C(=O)O)cc2)NC(=O)[C@H](C(C)O)NC(=O)CSC[C@@H](C(=O)N[C@@H](CC(N)=O)C(=O)N[C@@H](CCN)C(=O)NCCCCCCCCCCCCCCC(=O)O)NC(=O)[C@H](CO)NC(=O)[C@H](C(C)C)NC(=O)[C@H](CC2CCCCC2)NC(=O)[C@H](CCN)NC(=O)[C@@H](CC(C)C)NC(=O)[C@H](CCCN)NC(=O)[C@H](C(C)C)NC(=O)[C@H](Cc2ccc(-c3ccccc3)cc2)NC1=O (stereo partly drawn) [Compound 3023] ({CH2CO}-[Thr(3ξ)][Phe(4-COOH)]DWL[Bip]V[Orn][dL][Dab][Cha]VSCN[Dab]-{NH(CH2)14COOH}; thioether N-14)
The IC50 of the first is 3-fold higher: 552 nM for the first, 184 nM for the second.

CC(C)C[C@H]1NC(=O)[C@H](CCCN)NC(=O)[C@H](C(C)C)NC(=O)[C@H](Cc2ccc(-c3ccccc3)cc2)NC(=O)[C@H](C(C)C)NC(=O)[C@H](Cc2c[nH]c3ccccc23)NC(=O)[C@H](CC(=O)O)NC(=O)[C@H](Cc2ccc(C(=O)O)cc2)NC(=O)[C@H](CCCCNC(=N)N)NC(=O)CSC[C@@H](C(=O)N[C@@H](C)C(=O)N[C@@H](CCCCN)C(=O)NCCCCCCCCCCCCCCC(=O)O)NC(=O)[C@H](C(C)O)NC(=O)[C@H](C(C)C)NC(=O)[C@H](CC2CCCCC2)NC(=O)[C@H](CCN)NC1=O (stereo partly drawn) [Compound 3016] ({CH2CO}-[hArg][Phe(4-COOH)]DWV[Bip]V[Orn][dL][Dab][Cha]V[Thr(3ξ)]CAK-{NH(CH2)14COOH}; thioether N-14) and CC(C)C[C@H]1NC(=O)[C@H](CCCN)NC(=O)[C@H](C(C)C)NC(=O)[C@H](Cc2ccc(-c3ccccc3)cc2)NC(=O)[C@H](C(C)C)NC(=O)[C@H](Cc2c[nH]c3ccccc23)NC(=O)[C@H](CC(=O)O)NC(=O)[C@H](Cc2ccc(C(=O)O)cc2)NC(=O)[C@H](C(C)O)NC(=O)CSC[C@@H](C(=O)N[C@@H](C)C(=O)N[C@@H](CCCCN)C(=O)NCCCCCCCCCCCCCCC(=O)O)NC(=O)[C@H](C(C)O)NC(=O)[C@H](C(C)C)NC(=O)[C@H](CC2CCCCC2)NC(=O)[C@H](CCN)NC1=O (stereo partly drawn) [Compound 3021] ({CH2CO}-[Thr(3ξ)][Phe(4-COOH)]DWV[Bip]V[Orn][dL][Dab][Cha]V[Thr(3ξ)]CAK-{NH(CH2)14COOH}; thioether N-14) are within 1.5-fold of each other in IC50: 94.5 nM for the first, 130 nM for the second.

Going from CC(C)C[C@@H]1NC(=O)[C@H](Cc2c[nH]c3ccccc23)NC(=O)[C@H](CC(=O)O)NC(=O)[C@H](Cc2ccc(C(=O)O)cc2)NC(=O)[C@H](CCCCNC(=N)N)NC(=O)CSC[C@@H](C(=O)N[C@@H](C)C(=O)N[C@@H](CCN)C(=O)NCCCCCCCCCCCCCCC(=O)O)NC(=O)[C@H](CO)NC(=O)[C@H](C(C)C)NC(=O)[C@H](CC2CCCCC2)NC(=O)[C@H](Cc2c[nH]cn2)NC(=O)[C@@H](CC(C)C)NC(=O)[C@H](CCCN)NC(=O)[C@H](C(C)C)NC(=O)[C@H](Cc2ccc(-c3ccccc3)cc2)NC1=O [Compound 3019] ({CH2CO}-[hArg][Phe(4-COOH)]DWL[Bip]V[Orn][dL]H[Cha]VSCA[Dab]-{NH(CH2)14COOH}; thioether N-14) to CC(C)C[C@@H]1NC(=O)[C@H](Cc2c[nH]c3ccccc23)NC(=O)[C@H](CC(=O)O)NC(=O)[C@H](Cc2ccc(C(=O)O)cc2)NC(=O)[C@H](C(C)O)NC(=O)CSC[C@@H](C(=O)N[C@@H](C)C(=O)N[C@@H](CCN)C(=O)NCCCCCCCCCCCCCCC(=O)O)NC(=O)[C@H](CO)NC(=O)[C@H](C(C)C)NC(=O)[C@H](CC2CCCCC2)NC(=O)[C@H](Cc2c[nH]cn2)NC(=O)[C@@H](CC(C)C)NC(=O)[C@H](CCCN)NC(=O)[C@H](C(C)C)NC(=O)[C@H](Cc2ccc(-c3ccccc3)cc2)NC1=O (stereo partly drawn) [Compound 3024] ({CH2CO}-[Thr(3ξ)][Phe(4-COOH)]DWL[Bip]V[Orn][dL]H[Cha]VSCA[Dab]-{NH(CH2)14COOH}; thioether N-14), the IC50 rises from 336 nM to 891 nM (2.7-fold). The first is the more potent here.

CC(C)C[C@H]1NC(=O)[C@H](CCCN)NC(=O)[C@H](C(C)C)NC(=O)[C@H](Cc2ccc(-c3ccccc3)cc2)NC(=O)[C@H](C(C)C)NC(=O)[C@H](Cc2c[nH]c3ccccc23)NC(=O)[C@H](CC(=O)O)NC(=O)[C@H](Cc2ccc(C(=O)O)cc2)NC(=O)[C@H](C(C)O)NC(=O)CSC[C@@H](C(=O)N[C@@H](C)C(=O)NCCOCCOCC(=O)N[C@@H](CCN)C(=O)NCCCCCCCCCCC(=O)O)NC(=O)[C@H](C(C)O)NC(=O)[C@H](C(C)C)NC(=O)[C@H](CC2CCCCC2)NC(=O)[C@H](CCN)NC1=O (stereo partly drawn) [Compound 3022] ({CH2CO}-[Thr(3ξ)][Phe(4-COOH)]DWV[Bip]V[Orn][dL][Dab][Cha]V[Thr(3ξ)]CA[AEEA][Dab][Aun]-OH; thioether N-14) and CC(C)C[C@H]1NC(=O)[C@H](CCCN)NC(=O)[C@H](C(C)C)NC(=O)[C@H](Cc2ccc(-c3ccccc3)cc2)NC(=O)[C@H](C(C)C)NC(=O)[C@H](Cc2c[nH]c3ccccc23)NC(=O)[C@H](CC(=O)O)NC(=O)[C@H](Cc2ccc(OCC(=O)O)cc2)NC(=O)[C@H](CCCCNC(=N)N)NC(=O)CSC[C@@H](C(=O)N[C@@H](CC(N)=O)C(=O)NCCOCCOCC(=O)N[C@@H](CCCCN)C(=O)NCCCCCCCCCCC(=O)O)NC(=O)[C@H](C(C)O)NC(=O)[C@H](C(C)C)NC(=O)[C@H](CC2CCCCC2)NC(=O)[C@H](CCN)NC1=O (stereo partly drawn) [Compound 3026] ({CH2CO}-[hArg]Y(Carboxymethyl)DWV[Bip]V[Orn][dL][Dab][Cha]V[Thr(3ξ)]CN[AEEA]K[Aun]-OH; thioether N-14) are within 1.5-fold of each other in IC50: 7.3 nM for the first, 10 nM for the second.

Compound CC(C)C[C@H]1NC(=O)[C@H](CCCN)NC(=O)[C@H](CCC(=O)O)NC(=O)[C@H](Cc2ccc(-c3ccccc3)cc2)NC(=O)[C@H](C(C)C)NC(=O)[C@H](Cc2c[nH]c3ccccc23)NC(=O)[C@H](CC(=O)O)NC(=O)[C@H](Cc2ccncc2)NC(=O)[C@H](C(C)O)NC(=O)CSC[C@@H](C(=O)N[C@@H](C)C(=O)NCCOCCOCC(=O)N[C@@H](CCCCN)C(=O)NCCCCCCCCCCCCCCC(=O)O)NC(=O)[C@H](CO)NC(=O)[C@H](C(C)C)NC(=O)[C@H](CC2CCCCC2)NC(=O)[C@H](CCN)NC1=O (stereo partly drawn) [Compound 3025] ({CH2CO}-[Thr(3ξ)][4Pal]DWV[Bip]E[Orn][dL][Dab][Cha]VSCA[AEEA]K-{NH(CH2)14COOH}; thioether N-14) has an IC50 of 80.5 nM.
